Like-named read-outs stand apart in the source and are kept apart here.
Tests used:
[1] = target: T1, TF-VIIa (Homo sapiens, UniProt P08709); assay: TF-VIIa Assay; type: biochemical
T1 construct: 2nM recombinant human factor VIIa; purchased American Diagnostica, Greenwich CT; host or cells: soluble TF made in house in E. coli

[2] = target: Human factor Xa (Homo sapiens, UniProt P00742); assay: Xa Assay; conditions: read-out: IC50 or % Inhibition Factor Xa (30 µM); cells given as a plain number (IC50)
Chain of Human factor Xa (P00742 235-488 limits assumed): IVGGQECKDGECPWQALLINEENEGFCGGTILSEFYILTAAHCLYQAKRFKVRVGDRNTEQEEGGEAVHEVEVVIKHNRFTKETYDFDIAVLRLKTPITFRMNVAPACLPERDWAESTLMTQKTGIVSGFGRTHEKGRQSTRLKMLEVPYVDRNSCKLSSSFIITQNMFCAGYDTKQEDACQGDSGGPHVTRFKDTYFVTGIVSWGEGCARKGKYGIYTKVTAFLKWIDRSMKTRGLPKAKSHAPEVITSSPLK
Chain of Human factor Xa (P00742 41-179 limits assumed): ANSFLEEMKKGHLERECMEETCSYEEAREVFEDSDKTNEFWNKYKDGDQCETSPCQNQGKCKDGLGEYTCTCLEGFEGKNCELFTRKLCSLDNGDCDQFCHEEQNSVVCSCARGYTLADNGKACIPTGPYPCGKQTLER

[3] = cells given as a plain number (IC50); read-out: IC50 or % Inhibition TF-VIIa (30 µM)
[4] = read-out: IC50 or % Inhibition TF-VIIa (30 µM); cells given as a plain number (IC50)

T1 sequence (P08709 213-466 limits assumed): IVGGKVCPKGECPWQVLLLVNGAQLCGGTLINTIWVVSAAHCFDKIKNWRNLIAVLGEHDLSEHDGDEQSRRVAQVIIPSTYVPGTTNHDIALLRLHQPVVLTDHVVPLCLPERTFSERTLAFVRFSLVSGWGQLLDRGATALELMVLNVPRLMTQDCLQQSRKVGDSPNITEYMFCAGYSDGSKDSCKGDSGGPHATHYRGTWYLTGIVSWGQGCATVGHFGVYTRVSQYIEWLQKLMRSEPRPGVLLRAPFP
T1 sequence (P08709 61-212 limits assumed): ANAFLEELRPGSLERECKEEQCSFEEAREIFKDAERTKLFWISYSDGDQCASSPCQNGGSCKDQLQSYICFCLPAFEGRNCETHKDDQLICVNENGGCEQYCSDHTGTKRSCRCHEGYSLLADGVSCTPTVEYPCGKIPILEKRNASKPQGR
T1 sequence (P13726 33-251 partner limits assumed): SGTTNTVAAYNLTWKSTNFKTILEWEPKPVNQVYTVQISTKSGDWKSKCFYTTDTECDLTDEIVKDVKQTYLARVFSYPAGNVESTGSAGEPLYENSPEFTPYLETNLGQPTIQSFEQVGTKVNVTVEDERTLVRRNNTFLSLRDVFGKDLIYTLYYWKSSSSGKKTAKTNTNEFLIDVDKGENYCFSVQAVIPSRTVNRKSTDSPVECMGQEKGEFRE

Compound	IC50 [1, 3] [nM]	IC50 [2] [nM]	IC50 [1, 4] [nM]
N=C(N)c1ccc(CNC(=O)Cn2c(-c3ccccc3)c(Cl)nc(NC3CCCCCC3)c2=O)cc1 [1522-36]	1000	> 30000	–
N=C(N)c1ccc(CNC(=O)Cn2c(-c3ccccc3)c(Cl)nc(NCCNc3ncc(C(F)(F)F)cc3Cl)c2=O)cc1 [1522-37]	–	> 30000	2000
N=C(N)c1ccc(CNC(=O)Cn2c(-c3ccccc3)c(Cl)nc(NCCNc3ncccc3C(F)(F)F)c2=O)cc1 [1522-38]	–	> 30000	1000
N=C(N)c1ccc(CNC(=O)Cn2c(-c3ccccc3)c(Cl)nc(NC3CC4CCC3C4)c2=O)cc1 (stereo not shown) [1522-44]	800	> 30000	–
N=C(N)c1ccc(CNC(=O)Cn2c(-c3cccc(N)c3)c(Cl)nc(NC3CC3)c2=O)cc1 [1526-01]	–	> 30000	20
N=C(N)c1ccc(CNC(=O)Cn2c(-c3cccc(N)c3)c(Cl)nc(NCC(F)(F)F)c2=O)cc1 [1526-04]	–	> 30000	30
COCC(C)Nc1nc(Cl)c(-c2cccc(N)c2)n(CC(=O)NCc2ccc(C(=N)N)cc2)c1=O (stereo not shown) [1526-05]	–	> 30000	100
CC(C)(C)Nc1nc(Cl)c(-c2cccc(N)c2)n(CC(=O)NCc2ccc(C(=N)N)cc2)c1=O [1526-07]	–	> 30000	80
CCC(CC)Nc1nc(Cl)c(-c2cccc(N)c2)n(CC(=O)NCc2ccc(C(=N)N)cc2)c1=O [1526-11]	50	> 30000	–
CC(C)C(C)Nc1nc(Cl)c(-c2cccc(N)c2)n(CC(=O)NCc2ccc(C(=N)N)cc2)c1=O (stereo not shown) [1526-15]	–	> 30000	60
C=CCNc1nc(Cl)c(-c2cccc(N)c2)n(CC(=O)NCc2ccc(C(=N)N)cc2)c1=O [1526-19]	–	> 30000	40
N=C(N)c1ccc(CNC(=O)Cn2c(-c3cccc(N)c3)c(Cl)nc(NC3CCC3)c2=O)cc1 [1526-23]	–	> 30000	30

Continued, values first:

IC50 [1, 3] [nM]	IC50 [2] [nM]	IC50 [1, 4] [nM]	Compound
840	> 30000	–	CC(C)CCNc1nc(Cl)c(-c2ccccc2)n(CC(=O)NCc2ccc(C(=N)N)cc2)c1=O [1522-14]
–	> 30000	540	CC(C)C(C)Nc1nc(Cl)c(-c2ccccc2)n(CC(=O)NCc2ccc(C(=N)N)cc2)c1=O (stereo not shown) [1522-15]
–	> 30000	620	CC(C)CC(C)Nc1nc(Cl)c(-c2ccccc2)n(CC(=O)NCc2ccc(C(=N)N)cc2)c1=O (stereo not shown) [1522-17]
1700	> 30000	–	CC(C)(C)CCNc1nc(Cl)c(-c2ccccc2)n(CC(=O)NCc2ccc(C(=N)N)cc2)c1=O [1522-18]
–	> 30000	2200	CC(CNc1nc(Cl)c(-c2ccccc2)n(CC(=O)NCc2ccc(C(=N)N)cc2)c1=O)N(C)C (stereo not shown) [1522-23]
500	> 30000	–	CC(C)CNc1nc(Cl)c(-c2ccccc2)n(CC(=O)NCc2ccc(C(=N)N)cc2)c1=O [1522-34]
–	> 30000	4000	CCN1CC(Nc2nc(Cl)c(-c3ccccc3)n(CC(=O)NCc3ccc(C(=N)N)cc3)c2=O)CN1CC [1522-35]
–	> 30000	1000	N=C(N)c1ccc(CNC(=O)Cn2c(-c3ccccc3)c(Cl)nc(NCCCCN3CCCC3)c2=O)cc1 [1522-42]
–	> 30000	800	C[C@H](Nc1nc(Cl)c(-c2ccccc2)n(CC(=O)NCc2ccc(C(=N)N)cc2)c1=O)C1CCCCC1 [1522-43]
1000	> 30000	–	N=C(N)c1ccc(CNC(=O)Cn2c(-c3ccccc3)c(Cl)nc(NC3CCS(=O)(=O)C3)c2=O)cc1 (stereo not shown) [1522-46]
–	> 30000	30	CC[C@H](C)Nc1nc(Cl)c(-c2cccc(N)c2)n(CC(=O)NCc2ccc(C(=N)N)cc2)c1=O [1526-09]
–	> 30000	60	CCCNc1nc(Cl)c(-c2cccc(N)c2)n(CC(=O)NCc2ccc(C(=N)N)cc2)c1=O [1526-13]
–	> 30000	40	CCC(C)Nc1nc(Cl)c(-c2cccc(N)c2)n(CC(=O)NCc2ccc(C(=N)N)cc2)c1=O (stereo not shown) [1526-14]
–	> 30000	40	CC[C@@H](C)Nc1nc(Cl)c(-c2cccc(N)c2)n(CC(=O)NCc2ccc(C(=N)N)cc2)c1=O [1526-16]
–	> 30000	50	C#CCNc1nc(Cl)c(-c2cccc(N)c2)n(CC(=O)NCc2ccc(C(=N)N)cc2)c1=O [1526-21]
140	> 30000	–	COCCNc1nc(Cl)c(-c2cccc(N)c2)n(CC(=O)NCc2ccc(C(=N)N)cc2)c1=O [1526-25]
–	> 30000	60	CC(C)CNc1nc(Cl)c(-c2cccc(N)c2)n(CC(=O)NCc2ccc(C(=N)N)cc2)c1=O [1526-26]
